Measured values taken from paper PMC5860131, “Identification of natural products as novel ligands for the human 5-HT2C receptor” (Biophysics Reports, 2018).

What was measured:
Assay type in all cases: binding
[1] = target: T1, 5-HT2C receptor G218^5.42A (Homo sapiens, UniProt P28335, DEL255-298/G218A/G251D/H250E/H252N/INS299[…]/L248D/M247A/M300L/T253W); assay: Affinity MS assay, 5-HT2C mutant G218A
T1 construct: the N- and C-terminals were truncated by 39 and 65 residues, respectively; PreScission protease site + 10× His (C); made in house
Source text: (§1) Based on the binding poses predicted by molecular docking, single-point mutations were designed to test their impact on ligand binding. Mutations of several residues include the highly conserved Asp134^3.32, which is known to cause 5-HT1B or 5-HT2B receptors to abolish the monoamine ligand binding as reported in the literature (Wang et al. [2013]). In this study, residues forming hydrophobic interactions with the substitution groups on the aporphine scaffold of (–)-crebanine (1) were selected for mutation as well and they are Thr139^3.37, Gly218^5.42, Ala222^5.46, and Leu209^ECL2. Effects of those mutations were tested with the CPM assay and the affinity MS assay (Table 2). In the affinity MS experiment, relative ligand-binding capacity (represented by binding %) to different mutants and the wild-type receptor was compared. Among the six mutations tested, five of them reduced the binding of (–)-crebanine (1) by more than 40% relative to binding to the wild-type receptor, displaying the importance of hydrophobic interactions. […]
(§2) Four experimental replicates were prepared for each pair of the test ligand and the negative control. […] S/C ratios refer to the ratio of MS response of a specific ligand detected in the 5-HT2C incubation sample versus the control. […]

[2] = target: T2, 5-HT2C receptor A222^5.46F (Homo sapiens, UniProt P28335, A222F/DEL255-298/G251D/H250E/H252N/INS299[…]/L248D/M247A/M300L/T253W); assay: Affinity MS assay, 5-HT2C mutant A222F; conditions: mutant A222^5.46F, n = 2
T2 construct: the N- and C-terminals were truncated by 39 and 65 residues, respectively; PreScission protease site + 10× His (C); made in house
Source text: as §1, §2

[3] = target: T3, 5-HT2C receptor T139^3.37A (Homo sapiens, UniProt P28335, DEL255-298/G251D/H250E/H252N/INS299[…]/L248D/M247A/M300L/T139A/T253W); assay: Affinity MS assay, 5-HT2C mutant T139A; conditions: mutant T139^3.37A, n = 2
T3 construct: the N- and C-terminals were truncated by 39 and 65 residues, respectively; PreScission protease site + 10× His (C); made in house
Source text: as §1, §2

[4] = target: T4, 5-HT2C receptor L209^ECL2F (Homo sapiens, UniProt P28335, DEL255-298/G251D/H250E/H252N/INS299[…]/L209F/L248D/M247A/M300L/T253W); assay: Affinity MS assay, 5-HT2C mutant L209F; conditions: n = 2
T4 construct: the N- and C-terminals were truncated by 39 and 65 residues, respectively; PreScission protease site + 10× His (C); made in house
Source text: as §1, §2

[5] = target: T5, 5-HT2C receptor A222^5.46V (Homo sapiens, UniProt P28335, A222V/DEL255-298/G251D/H250E/H252N/INS299[…]/L248D/M247A/M300L/T253W); assay: Affinity MS assay, 5-HT2C mutant A222V; conditions: mutant A222^5.46V, n = 2
T5 construct: the N- and C-terminals were truncated by 39 and 65 residues, respectively; PreScission protease site + 10× His (C); made in house
Source text: as §1, §2

[6] = target: T3, 5-HT2C receptor T139^3.37A; assay: CPM thermal stability assay, 5-HT2C mutant T139A; conditions: mutant T139^3.37A, n = 2
Source text: as §1, with “compared.” for “compared. Among the six mutations tested, five of them reduced the binding of (–)-crebanine (1) by more than 40% relative to binding to the wild-type receptor, displaying the importance of hydrophobic interactions.”
Purified 5-HT2C receptor protein was thoroughly mixed with CPM fluorescent dyes. […] Fluorescence signals, wavelength 387 nm (excitation) and 463 nm (emission), were monitored (Alexandrov et al. [2008]). […] The thermal denaturation of the samples was evaluated using the scatter plot curve, where the horizontal coordinates represented temperature and the vertical coordinates indicated normalized fluorescence intensity recorded for a particular temperature. […]

T1 sequence (P28335 with tags, fused parts or gaps with the stated changes): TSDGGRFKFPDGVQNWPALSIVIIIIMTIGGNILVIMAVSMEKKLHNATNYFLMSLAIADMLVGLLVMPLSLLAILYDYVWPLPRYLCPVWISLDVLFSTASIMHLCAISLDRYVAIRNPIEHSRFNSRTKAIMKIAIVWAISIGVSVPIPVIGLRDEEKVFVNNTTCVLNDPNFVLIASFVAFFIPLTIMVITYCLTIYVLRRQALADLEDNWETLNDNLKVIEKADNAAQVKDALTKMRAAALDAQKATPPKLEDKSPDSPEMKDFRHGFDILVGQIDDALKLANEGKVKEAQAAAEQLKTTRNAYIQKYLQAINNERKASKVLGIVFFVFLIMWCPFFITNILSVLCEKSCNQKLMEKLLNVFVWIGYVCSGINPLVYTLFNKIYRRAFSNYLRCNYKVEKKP
T3 sequence (P28335 with tags, fused parts or gaps with the stated changes): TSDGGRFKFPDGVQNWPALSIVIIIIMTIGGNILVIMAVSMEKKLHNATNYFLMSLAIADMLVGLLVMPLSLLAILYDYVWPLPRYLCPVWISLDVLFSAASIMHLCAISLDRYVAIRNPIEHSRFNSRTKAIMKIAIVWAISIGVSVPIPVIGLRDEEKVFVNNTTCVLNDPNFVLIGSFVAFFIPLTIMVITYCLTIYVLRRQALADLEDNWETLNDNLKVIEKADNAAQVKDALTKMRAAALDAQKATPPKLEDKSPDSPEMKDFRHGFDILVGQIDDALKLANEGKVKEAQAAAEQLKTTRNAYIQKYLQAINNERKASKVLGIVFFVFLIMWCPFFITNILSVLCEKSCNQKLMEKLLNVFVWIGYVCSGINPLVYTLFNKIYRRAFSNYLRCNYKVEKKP
T4 sequence (P28335 with tags, fused parts or gaps with the stated changes): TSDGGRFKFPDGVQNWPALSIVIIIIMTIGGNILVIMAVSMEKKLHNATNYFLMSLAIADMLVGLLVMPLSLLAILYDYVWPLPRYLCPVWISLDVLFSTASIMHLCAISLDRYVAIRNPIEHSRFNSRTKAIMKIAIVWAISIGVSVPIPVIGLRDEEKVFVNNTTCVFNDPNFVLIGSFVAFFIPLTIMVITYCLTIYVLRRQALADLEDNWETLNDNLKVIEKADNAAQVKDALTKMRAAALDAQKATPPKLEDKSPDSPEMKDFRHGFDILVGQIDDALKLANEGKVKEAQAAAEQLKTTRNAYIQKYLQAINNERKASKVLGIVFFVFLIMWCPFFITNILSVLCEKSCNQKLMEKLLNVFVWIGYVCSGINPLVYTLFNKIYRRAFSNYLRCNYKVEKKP
T2 sequence (P28335 with tags, fused parts or gaps with the stated changes): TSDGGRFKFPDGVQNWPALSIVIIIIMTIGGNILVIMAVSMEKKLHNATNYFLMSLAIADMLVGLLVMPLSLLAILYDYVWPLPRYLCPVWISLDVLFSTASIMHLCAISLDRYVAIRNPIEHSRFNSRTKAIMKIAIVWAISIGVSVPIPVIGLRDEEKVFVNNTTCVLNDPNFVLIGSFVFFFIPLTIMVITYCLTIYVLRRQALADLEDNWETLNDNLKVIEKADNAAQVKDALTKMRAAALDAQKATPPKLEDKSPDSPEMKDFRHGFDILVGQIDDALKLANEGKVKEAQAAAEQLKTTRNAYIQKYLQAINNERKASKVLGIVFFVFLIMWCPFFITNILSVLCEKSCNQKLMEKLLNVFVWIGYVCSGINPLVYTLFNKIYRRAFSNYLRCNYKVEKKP
T5 sequence (P28335 with tags, fused parts or gaps with the stated changes): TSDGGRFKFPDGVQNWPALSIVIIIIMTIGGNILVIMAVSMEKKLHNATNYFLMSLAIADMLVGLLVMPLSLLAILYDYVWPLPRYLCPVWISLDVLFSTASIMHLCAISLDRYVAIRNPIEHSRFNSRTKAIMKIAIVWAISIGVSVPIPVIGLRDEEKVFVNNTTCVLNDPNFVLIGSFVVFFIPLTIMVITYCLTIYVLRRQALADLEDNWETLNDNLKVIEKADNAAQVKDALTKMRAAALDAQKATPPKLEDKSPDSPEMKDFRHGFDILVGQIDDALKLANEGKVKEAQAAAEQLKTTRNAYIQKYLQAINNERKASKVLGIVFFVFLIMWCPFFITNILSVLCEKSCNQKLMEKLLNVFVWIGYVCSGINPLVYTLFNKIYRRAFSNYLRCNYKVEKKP

In the case of `COc1ccc2c(c1OC)C[C@@H]1c3c(cc4c(c3-2)OCO4)CCN1C` [Compound 1, (–)-crebanine], the “(–)-Crebanine/MS relative ligand binding” value ([1]; mutant G218^5.42A, n = 2) is reported as 9.82%, the “ligand-binding capacity reduction versus wild-type” value ([1]; mutation Gly218^5.42Ala) is reported as “over 60%” and the “(–)-Crebanine/MS relative ligand binding” value [2] is reported as 15.87%. For the same compound, the “(–)-Crebanine/MS relative ligand binding” value [3] was 14.64%, the “(–)-Crebanine/MS relative ligand binding” value [4] was 13.22% and the “(–)-Crebanine/MS relative ligand binding” value [5] was 25.84%. For the same compound, the “(–)-Crebanine/CPM (Tm)” value [6] was 54.63 °C.
